“And” between values parts separate entries of the source, which are not always exact repeats. Equal values may be shown once. Read-outs that look alike come from different tables or passages of the source.
Experiments:
Meprin α [1] = conditions: cited from earlier work
MMP2 = biological target: T1, MMP2 (Homo sapiens, UniProt P08253); conditions: single value given, at 10 μM ref 11; cited from earlier work
T1 construct: purchased R&D Systems 902-MP
T1 sequence (P08253 110-660): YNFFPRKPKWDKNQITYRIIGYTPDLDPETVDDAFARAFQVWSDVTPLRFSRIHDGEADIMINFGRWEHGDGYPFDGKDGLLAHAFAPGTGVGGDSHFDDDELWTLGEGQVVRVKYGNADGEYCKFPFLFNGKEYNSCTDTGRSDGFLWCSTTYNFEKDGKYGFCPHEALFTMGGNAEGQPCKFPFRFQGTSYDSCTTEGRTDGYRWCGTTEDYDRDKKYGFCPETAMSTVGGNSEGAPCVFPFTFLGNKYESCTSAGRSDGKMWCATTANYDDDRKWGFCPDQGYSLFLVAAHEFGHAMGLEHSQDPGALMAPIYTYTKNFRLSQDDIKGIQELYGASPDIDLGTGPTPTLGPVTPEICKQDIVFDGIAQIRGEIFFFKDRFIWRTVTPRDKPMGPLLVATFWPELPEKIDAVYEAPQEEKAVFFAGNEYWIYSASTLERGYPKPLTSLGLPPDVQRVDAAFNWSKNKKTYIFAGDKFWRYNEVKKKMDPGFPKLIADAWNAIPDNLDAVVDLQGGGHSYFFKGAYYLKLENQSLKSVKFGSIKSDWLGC

MMP9 = biological target: T2, MMP9 (Homo sapiens, UniProt P14780); conditions: single value given, at 10 μM ref 11; cited from earlier work
T2 construct: purchased R&D Systems 911-MP

MMP13 = biological target: T3, MMP13 (Homo sapiens, UniProt P45452); conditions: single value given, at 10 μM ref 11; cited from earlier work
T3 construct: purchased R&D Systems 511-MM

ADAM10 = biological target: T4, ADAM10 (Homo sapiens, UniProt O14672); conditions: single value given, at 10 μM ref 11; cited from earlier work
T4 construct: purchased R&D Systems 936-AD
T4 sequence (O14672 214-748): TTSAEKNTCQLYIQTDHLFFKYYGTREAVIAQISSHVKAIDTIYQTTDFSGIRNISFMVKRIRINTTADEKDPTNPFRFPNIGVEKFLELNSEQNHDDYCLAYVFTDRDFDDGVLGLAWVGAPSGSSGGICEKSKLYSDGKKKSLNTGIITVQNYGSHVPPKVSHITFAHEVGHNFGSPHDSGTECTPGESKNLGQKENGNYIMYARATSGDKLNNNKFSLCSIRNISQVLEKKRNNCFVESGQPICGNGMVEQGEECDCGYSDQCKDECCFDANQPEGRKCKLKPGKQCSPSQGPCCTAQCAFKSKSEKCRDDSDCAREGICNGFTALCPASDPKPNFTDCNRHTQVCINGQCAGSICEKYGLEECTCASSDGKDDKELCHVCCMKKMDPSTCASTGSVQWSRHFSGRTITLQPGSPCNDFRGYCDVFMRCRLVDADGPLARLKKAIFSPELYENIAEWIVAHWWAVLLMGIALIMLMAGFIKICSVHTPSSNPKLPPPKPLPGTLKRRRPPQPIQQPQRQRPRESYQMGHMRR

ADAM17 = biological target: T5, ADAM17 (Homo sapiens, UniProt P78536); conditions: single value given, at 10 μM ref 11; cited from earlier work
T5 construct: purchased R&D Systems 930-ADB

Meprin β = conditions: cited from earlier work
meprin α [2] = biological target: T6, meprin α (Homo sapiens, UniProt Q16819); assay: Meprin α assay in a 384-well plate (fluorogenic substrate Mca-YVADAPK-K(Dnp)); format: biochemical
T6 construct: Strep-tag; made in house; host or cells: BTI-TN-5B1-4 insect cells (baculovirus, amplified in Sf9)
T6 sequence (Q16819 66-746): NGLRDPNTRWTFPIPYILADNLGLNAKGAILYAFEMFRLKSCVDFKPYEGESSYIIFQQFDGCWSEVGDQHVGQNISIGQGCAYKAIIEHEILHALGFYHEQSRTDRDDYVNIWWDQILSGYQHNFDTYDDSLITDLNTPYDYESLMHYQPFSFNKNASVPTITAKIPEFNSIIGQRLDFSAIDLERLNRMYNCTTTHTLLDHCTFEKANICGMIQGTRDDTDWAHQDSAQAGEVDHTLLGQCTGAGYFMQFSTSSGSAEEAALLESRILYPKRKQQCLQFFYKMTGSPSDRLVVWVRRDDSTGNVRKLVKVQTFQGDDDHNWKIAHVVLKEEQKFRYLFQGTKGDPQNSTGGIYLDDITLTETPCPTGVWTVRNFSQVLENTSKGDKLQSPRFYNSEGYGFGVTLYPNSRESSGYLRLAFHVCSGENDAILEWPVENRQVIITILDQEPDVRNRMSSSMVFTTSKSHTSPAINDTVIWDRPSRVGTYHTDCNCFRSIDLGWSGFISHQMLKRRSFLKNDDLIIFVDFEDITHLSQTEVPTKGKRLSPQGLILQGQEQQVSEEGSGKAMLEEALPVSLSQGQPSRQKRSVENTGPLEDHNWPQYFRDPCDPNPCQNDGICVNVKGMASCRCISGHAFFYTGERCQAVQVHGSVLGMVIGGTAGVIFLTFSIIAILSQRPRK
Procedure: (§1) Recombinant human meprin α and meprin β were expressed using the Bac-to-Bac expression system (Gibco Life Technologies, Paisley, UK) as described before. Media and supplements were obtained from Gibco Life Technologies. Recombinant Baculoviruses were amplified in adherently growing Spodoptera frugiperda (Sf)9 insect cells at 27 °C in Grace’s insect medium supplemented with 10% fetal bovine serum, 50 units/mL penicillin, and 50 μg/mL streptomycin. Protein expression was performed in 500 mL suspension cultures of BTI-TN-5B1-4 insect cells growing in Express Five SFM supplemented with 4 mM glutamine, 50 units/mL penicillin, and 50 μg/mL streptomycin in Fernbach-flasks using a Multitron orbital shaker (INFORS AG, Bottmingen, Switzerland). Cells were infected at a density of 2 × 10^6 cells/mL with an amplified viral stock at a MOI of ~10. […] Meprins were activated by trypsin, which was removed afterwards by affinity chromatography using a column containing immobilized chicken ovomucoid, a trypsin inhibitor.
(§2) Both assays followed the same general protocol. […] After 30 min incubation at RT, the reactions were started by addition of 5 µL of 2× solutions of substrates (20 µM, meprin α Mca-YVADAPK-K(Dnp), and for meprin β Mca-EDEDED-K(Dnp)).

human meprin β = biological target: T7, human meprin β (Homo sapiens, UniProt Q16820); assay: Meprin β assay in a 384-well plate (fluorogenic substrate Mca-EDEDED-K(Dnp)); format: biochemical
T7 construct: His-tag; made in house; host or cells: BTI-TN-5B1-4 insect cells (baculovirus, amplified in Sf9)
T7 sequence (Q16820 62-701): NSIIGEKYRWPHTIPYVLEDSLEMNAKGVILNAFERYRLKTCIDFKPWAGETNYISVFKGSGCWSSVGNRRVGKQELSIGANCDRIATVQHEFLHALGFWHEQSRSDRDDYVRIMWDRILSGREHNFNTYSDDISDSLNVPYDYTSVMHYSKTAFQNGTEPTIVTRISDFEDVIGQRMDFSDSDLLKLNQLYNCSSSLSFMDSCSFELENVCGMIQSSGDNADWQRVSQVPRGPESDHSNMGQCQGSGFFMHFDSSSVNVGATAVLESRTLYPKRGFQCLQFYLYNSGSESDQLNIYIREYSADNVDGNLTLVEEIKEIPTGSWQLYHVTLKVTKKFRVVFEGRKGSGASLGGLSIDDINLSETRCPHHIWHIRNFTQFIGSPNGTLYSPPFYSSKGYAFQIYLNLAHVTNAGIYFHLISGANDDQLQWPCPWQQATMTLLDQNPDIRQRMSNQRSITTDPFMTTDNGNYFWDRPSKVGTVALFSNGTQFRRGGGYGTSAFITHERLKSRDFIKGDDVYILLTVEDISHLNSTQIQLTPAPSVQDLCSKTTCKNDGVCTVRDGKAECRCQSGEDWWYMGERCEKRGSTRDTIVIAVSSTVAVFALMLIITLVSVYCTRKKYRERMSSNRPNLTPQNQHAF
Procedure: as §1, §2

T2 sequence (P14780 94-707): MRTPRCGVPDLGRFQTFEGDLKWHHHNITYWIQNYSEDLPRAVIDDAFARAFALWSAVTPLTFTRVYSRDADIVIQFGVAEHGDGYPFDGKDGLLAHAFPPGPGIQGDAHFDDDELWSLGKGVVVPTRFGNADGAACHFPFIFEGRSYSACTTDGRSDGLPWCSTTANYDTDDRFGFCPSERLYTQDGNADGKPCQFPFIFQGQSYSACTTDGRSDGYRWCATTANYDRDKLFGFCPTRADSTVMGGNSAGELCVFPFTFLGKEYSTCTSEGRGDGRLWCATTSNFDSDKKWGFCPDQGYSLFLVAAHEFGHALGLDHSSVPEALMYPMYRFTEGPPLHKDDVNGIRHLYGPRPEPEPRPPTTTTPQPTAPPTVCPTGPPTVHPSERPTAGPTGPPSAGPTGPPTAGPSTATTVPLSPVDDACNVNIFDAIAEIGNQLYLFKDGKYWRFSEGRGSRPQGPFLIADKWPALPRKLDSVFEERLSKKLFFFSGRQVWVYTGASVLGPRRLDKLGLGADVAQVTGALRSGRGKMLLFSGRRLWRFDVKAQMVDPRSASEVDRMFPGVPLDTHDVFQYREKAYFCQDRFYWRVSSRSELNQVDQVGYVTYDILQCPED
T5 sequence (P78536 215-824): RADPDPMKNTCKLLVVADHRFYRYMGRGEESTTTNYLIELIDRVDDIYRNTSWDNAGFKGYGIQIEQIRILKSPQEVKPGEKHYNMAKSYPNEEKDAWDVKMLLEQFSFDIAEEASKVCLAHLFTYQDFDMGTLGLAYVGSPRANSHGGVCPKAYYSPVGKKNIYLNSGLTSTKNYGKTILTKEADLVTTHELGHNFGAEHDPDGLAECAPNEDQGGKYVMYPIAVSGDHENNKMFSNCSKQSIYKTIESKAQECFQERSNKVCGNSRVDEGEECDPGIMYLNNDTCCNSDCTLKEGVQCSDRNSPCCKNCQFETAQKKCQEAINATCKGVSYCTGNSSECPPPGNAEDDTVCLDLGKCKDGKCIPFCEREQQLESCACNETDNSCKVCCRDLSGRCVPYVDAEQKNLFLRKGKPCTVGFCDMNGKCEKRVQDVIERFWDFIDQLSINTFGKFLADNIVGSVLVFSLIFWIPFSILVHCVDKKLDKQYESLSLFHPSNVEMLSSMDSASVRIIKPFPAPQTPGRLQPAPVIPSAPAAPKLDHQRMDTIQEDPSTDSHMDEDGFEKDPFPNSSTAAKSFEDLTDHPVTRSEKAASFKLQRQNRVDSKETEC

Row | SMILES | IC50 (meprin α [2]; triplicate, ± SD) | IC50 (human meprin β; triplicate, ± SD) [µM] | other results
1 | O=C(CN(Cc1ccc(Cl)c(O)c1F)Cc1ccc(Cl)c(O)c1F)NO [1c] | – | – | IC50 (Meprin α [1]): 0.19 ± 0.001 µM; MMP2 % activity remaining (MMP2): 95%; MMP9 % activity remaining (MMP9): 91%; MMP13 % activity remaining (MMP13): 86%; ADAM10 % activity remaining (ADAM10): 86%; ADAM17 % activity remaining (ADAM17): 86%
2 | O=C(Cc1c(-c2ccccc2)noc1-c1ccccc1)NO [2c] | – | – | IC50 (Meprin α [1]): 0.004 ± 0.001 µM; IC50 (Meprin β): 0.813 ± 0.001 µM; MMP2 % activity remaining (MMP2): 87%; MMP9 % activity remaining (MMP9): 86%; MMP13 % activity remaining (MMP13): 80%; ADAM10 % activity remaining (ADAM10): 80%; ADAM17 % activity remaining (ADAM17): 62%
3 | O=C(CSc1nnc(NC(=O)COc2ccccc2)s1)NO [SR19848] | – | – | IC50 (meprin α [2]): 0.217 µM; meprin α/β selectivity (in words) (meprin α [2]; Figure 1): no meprin α/β selectivity; IC50 (human meprin β): 0.329 µM
4 | COc1cc(OC)nc(SCc2nnc(SCC(=O)NO)n2-c2ccccc2OC)n1 [SR24459, 2-((5-(((4,6-dimethoxypyrimidin-2-yl)thio)methyl)-4-(2-methoxyphenyl)-4H-1,2,4-triazol-3-yl)thio)-N-hydroxyacetamide] | 12.1 ± 3.9 µM | 52 ± 1 | –
5 | COc1cc(OC)nc(SCc2nnc(SCC(=O)NO)n2-c2cccnc2)n1 [SR24718, 2-((5-(((4,6-dimethoxypyrimidin-2-yl)thio)methyl)-4-(pyridin-3-yl)-4H-1,2,4-triazol-3-yl)thio)-N-hydroxyacetamide] | 10.1 ± 2.3 µM | > 100 | –
6 | CCN(CC)c1ccc(-n2c(CSc3nc(OC)cc(OC)n3)nnc2SCC(=O)NO)cc1 [SR26465, 2-((4-(4-(diethylamino)phenyl)-5-(((4,6-dimethoxypyrimidin-2-yl)thio)methyl)-4H-1,2,4-triazol-3-yl)thio)-N-hydroxyacetamide] | 0.6 ± 0.06 µM | 75 ± 15 | meprin α/β fold selectivity (ratio of IC50 values) (meprin α [2]; meprin α over meprin β): > 100 fold
7 | COc1cc(OC)nc(SCc2nnc(SCC(=O)NO)n2-c2ccc(N3CCOCC3)cc2)n1 [SR26466, 2-((5-(((4,6-dimethoxypyrimidin-2-yl)thio)methyl)-4-(4-morpholinophenyl)-4H-1,2,4-triazol-3-yl)thio)-N-hydroxyacetamide] | 1.1 ± 0.1 µM | > 100 | –
8 | COc1cc(OC)nc(SCc2nnc(SCC(=O)NO)n2-c2cccc3ccccc23)n1 [SR26467, 2-((5-(((4,6-dimethoxypyrimidin-2-yl)thio)methyl)-4-(naphthalen-1-yl)-4H-1,2,4-triazol-3-yl)thio)-N-hydroxyacetamide] | 2 ± 0.3 µM | > 100 | –

Continued, in another order:

Row | IC50 (meprin α [2]; triplicate, ± SD) | IC50 (human meprin β; triplicate, ± SD) [µM] | SMILES | other results
9 | 5.4 ± 1.2 µM | > 100 | COc1cc(OC)nc(SCc2nnc(SCC(=O)NO)n2-c2ccc(C(F)(F)F)cc2)n1 [SR24003, 2-((5-(((4,6-dimethoxypyrimidin-2-yl)thio)methyl)-4-(4-(trifluoromethyl)phenyl)-4H-1,2,4-triazol-3-yl)thio)-N-hydroxyacetamide] | –
10 | 4.1 ± 0.8 µM | 60 ± 7 | COc1ccc(-n2c(CSc3nc(C)cc(C)n3)nnc2SCC(=O)NO)cc1 [SR24139, 2-((5-(((4,6-dimethylpyrimidin-2-yl)thio)methyl)-4-(4-methoxyphenyl)-4H-1,2,4-triazol-3-yl)thio)-N-hydroxyacetamide] | –
11 | 8.7 ± 1.1 µM | > 100 | COc1ccc(-n2c(CSc3nc(OC)cc(OC)n3)nnc2SCC(=O)NO)cc1 [SR24144, 2-((5-(((4,6-dimethoxypyrimidin-2-yl)thio)methyl)-4-(4-methoxyphenyl)-4H-1,2,4-triazol-3-yl)thio)-N-hydroxyacetamide] | inhibition of meprin β at 100 μM (in words) (human meprin β; 100 μM): complete lack of inhibition
12 | 10.3 ± 1.1 µM | 59 ± 10 | COc1cccc(-n2c(CSc3nc(OC)cc(OC)n3)nnc2SCC(=O)NO)c1 [SR24460, 2-((5-(((4,6-dimethoxypyrimidin-2-yl)thio)methyl)-4-(3-methoxyphenyl)-4H-1,2,4-triazol-3-yl)thio)-N-hydroxyacetamide] | –
13 | 11.2 ± 2.6 µM | > 100 | COc1cc(OC)nc(SCc2nnc(SCC(=O)NO)n2-c2ccc(Br)cc2)n1 [SR24462, 2-((4-(4-bromophenyl)-5-(((4,6-dimethoxypyrimidin-2-yl)thio)methyl)-4H-1,2,4-triazol-3-yl)thio)-N-hydroxyacetamide] | –
14 | 10.4 ± 2.8 µM | > 100 | COc1cc(OC)nc(SCc2nnc(SCC(=O)NO)n2-c2ccc(F)cc2)n1 [SR24463, 2-((5-(((4,6-dimethoxypyrimidin-2-yl)thio)methyl)-4-(4-fluorophenyl)-4H-1,2,4-triazol-3-yl)thio)-N-hydroxyacetamide] | –
15 | 2 µM and 10.3 µM | > 100 | COc1cc(OC)nc(SCc2nnc(SCC(=O)NO)n2-c2cccc(C)c2)n1 [SR24467, 2-((5-(((4,6-dimethoxypyrimidin-2-yl)thio)methyl)-4-(m-tolyl)-4H-1,2,4-triazol-3-yl)thio)-N-hydroxyacetamide] | –
